Earlier results in US9211237B2, “Film foaming hydroalcoholic foam” (STIEFEL RESEARCH AUSTRALIA PTY LTD, priority 2003, dated 2015).

Conditions: UV absorber

maximum absorption [nm]	Structure (SMILES)
~360	COc1ccc(C(=O)CC(=O)c2ccc(C(C)(C)C)cc2)cc1 [Parsol 1789, butyl methoxydibenzolymethane]
308	CCCCC(CC)COC(=O)C=Cc1ccc(OC)cc1 (centres unmarked) [Parsol MCX, octinoxate]
